# Test results published in patent publication US11666577B2 (National Institute of Biological Sciences, Beijing, priority 2018, dated 2023).
# Where two headings read alike, the source gives them in different places.
# Legend:
# HT-29 cells = test: Necroptosis assay (TNF-α/Smac mimetic/z-VAD, TSZ-induced) in HT-29 cells; type: cell-based, human
# Procedure, shortened: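 HT-29 cells were challenged with 20 ng/ml TNF-α, 100 nM Smac mimetic and 20 mM z-VAD while compound was added at the same time (library screen at 10 mM). After 24 h, viability was read as ATP luminescence (CellTiter-Glo) and normalized to DMSO-treated cells; values are means ± SD of duplicates.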
# pMLKL = test: Immunofluorescence staining of pMLKL in HT-29 cells; type: cell-based, human; conditions: monoclonal anti-pMLKL antibody, Experimental-section numbering
# Excerpt: This is a crucial step in the translocation of MLKL from the cytoplasm to the cell membrane, where it mediates ion influx and/or causes the disruption of cell structures.^[5] To evaluate the mechanism of this series of compounds on MLKL, we detected the status (state of oligomerization and phosphorylation) of MLKL under TSZ stimulation in the presence of compound 12 or 15. […] Next, we evaluated the effects of MLKL inhibitors on the translocation of MLKL from the cytoplasm to the cell membrane. HT-29 cells were treated with TSZ in the presence of RIPA-56, NSA, compound 12, or compound 15 for 6 h. The proteins from cell lysates were separated and the soluble phase and membrane phase were analyzed separately with anti-MLKL and anti-pMLKL antibodies. […] We also performed immunofluorescence staining in HT-29 cells using a monoclonal anti-pMLKL antibody. After TSZ stimulation, large, bright-green fluorescent dots (pMLKL) were present in the plasma membrane. […] Sun, X. Wang, Trends Biochem. Sci 2014, 39, 587-593; bM. Pasparakis, P. Vandenabeele, Nature 2015, 517, 311-320. • 2. N. Holler, R. Zaru, O. Micheau, M. Thome, A. Attinger, S. Valitutti, J.-L. Bodmer, P. Schneider, B. Seed, J. Tschopp, Nat. Immunol. 2000, 1, 489-495. • 3. aS. He, L. Wang, L. Miao, T. Wang, F. Du, L. Zhao, X. Wang, Cell 2009, 137, 1100-1111; bD.-W. Zhang, J. Shao, J. Lin, N. Zhang, B.-J. Lu, S.-C. Lin, M.-Q. Dong, J. Han, Science 2009, 325, 332-336. • 4. L. Sun, H. et al. Cell 2012, 148, 213-227. • 5. aH. Wang, L. Sun, L. Su, J. Rizo, L. Liu, L.-F. Wang, F.-S. Wang, X. Wang, Mol. Cell 2014, 54, 133-146; bZ. Cai, S. Jitkaew, J. Zhao, H.-C. Chiang, S. Choksi, J. Liu, Y. Ward, L.-g. Wu, Z.-G. Liu, Nat. Cell Biol. 2014, 16, 55-65. • 6. aJ. Wu, et al., Cell Res. 2013, 23, 994-1006; bD. Ofengeim, Y. Ito, A. Najafov, Y. Zhang, B. Shan, J. P. DeWitt, J. Ye, X. Zhang, A. Chang, H. Vakifahmetoglu-Norberg, Cell reports 2015, 10, 1836-1849; cM. Pierdomenico, A. Negroni, L. Stronati, R. Vitali, E. Prete, J. Bertin, P. J. Gough, M. Aloi, S. Cucchiara, Am J. Gastroenterol. 2014, 109, 279-287. • 7. […]
# RIP3 = RIP3 (Homo sapiens, UniProt Q9Y572); test: RIP3 kinase activity enzymatic assay; type: biochemical
# Procedure: (§1) To determine whether the direct target of this series of compounds is MLKL, we performed activity based protein profiling (ABPP). Compound 12, an affinity probe, was incubated with MLKL-flag-HT-29 cell lysates for 2 hours, followed by a click reaction to conjugate the probe to a biotin-tag. The biotin-labeled compound-protein complexes were pulled down and analysed via SDS-PAGE.
# RIP1 = target: T1, RIP1 (Homo sapiens, UniProt Q13546); test: RIP1 kinase activity enzymatic assay; type: biochemical
# T1 sequence (Q13546 1-671): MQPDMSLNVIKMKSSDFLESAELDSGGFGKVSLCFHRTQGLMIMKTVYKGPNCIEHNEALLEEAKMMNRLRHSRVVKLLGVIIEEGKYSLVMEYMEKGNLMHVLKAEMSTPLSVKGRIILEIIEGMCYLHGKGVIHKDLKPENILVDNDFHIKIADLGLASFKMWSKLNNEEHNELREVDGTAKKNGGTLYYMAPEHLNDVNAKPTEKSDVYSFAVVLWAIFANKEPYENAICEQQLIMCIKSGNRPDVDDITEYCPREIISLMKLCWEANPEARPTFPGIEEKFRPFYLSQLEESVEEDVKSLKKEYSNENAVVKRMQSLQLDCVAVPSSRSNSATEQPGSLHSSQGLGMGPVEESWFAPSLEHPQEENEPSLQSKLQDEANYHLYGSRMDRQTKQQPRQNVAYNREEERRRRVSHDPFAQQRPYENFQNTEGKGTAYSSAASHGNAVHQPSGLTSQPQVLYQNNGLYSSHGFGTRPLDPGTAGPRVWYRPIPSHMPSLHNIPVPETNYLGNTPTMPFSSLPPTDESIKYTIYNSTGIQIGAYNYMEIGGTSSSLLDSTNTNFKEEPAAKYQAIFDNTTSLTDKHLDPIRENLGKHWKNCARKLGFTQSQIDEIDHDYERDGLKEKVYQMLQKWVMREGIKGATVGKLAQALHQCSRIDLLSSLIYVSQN
# Procedure: as §1
# VEGFR2 = VEGFR2 (Homo sapiens, UniProt P35968); conditions: cited from earlier work
# [1] = Series 1 (Table 1) compounds 1-146, HT-29 cells, TNF-α/Smac mimetic/z-VAD, 24 hrs, cell viability by ATP level, read-out: Series 1 compound necroptosis activity
# [2] = Homo sapiens, Series 1 (Table 1) compounds 1-146, HT-29 cells, TNF-α/Smac mimetic/z-VAD, 24 hrs, cell viability by ATP level, read-out: Series 1 compound necroptosis activity
# [3] = Homo sapiens, Series 2 (Table 2) compounds, HT-29 necroptosis assay, read-out: Series 2 compound necroptosis activity
# RIP3, sequence (Q9Y572 whole entry): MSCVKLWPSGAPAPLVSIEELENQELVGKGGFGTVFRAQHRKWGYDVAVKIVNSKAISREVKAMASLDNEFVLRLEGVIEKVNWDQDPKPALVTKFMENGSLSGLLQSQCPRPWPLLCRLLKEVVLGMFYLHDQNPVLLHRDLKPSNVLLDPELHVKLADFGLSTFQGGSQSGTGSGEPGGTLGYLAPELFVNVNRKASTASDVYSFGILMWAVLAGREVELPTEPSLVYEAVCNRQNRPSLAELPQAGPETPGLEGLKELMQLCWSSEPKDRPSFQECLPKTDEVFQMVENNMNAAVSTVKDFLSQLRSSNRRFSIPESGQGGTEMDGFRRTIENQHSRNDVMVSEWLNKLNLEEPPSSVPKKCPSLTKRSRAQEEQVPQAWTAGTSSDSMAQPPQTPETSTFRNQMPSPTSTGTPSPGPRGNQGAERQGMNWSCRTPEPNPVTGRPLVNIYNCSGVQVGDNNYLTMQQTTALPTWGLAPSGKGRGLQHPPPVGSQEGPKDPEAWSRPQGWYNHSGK
# VEGFR2, sequence (P35968 20-1356, species assumed): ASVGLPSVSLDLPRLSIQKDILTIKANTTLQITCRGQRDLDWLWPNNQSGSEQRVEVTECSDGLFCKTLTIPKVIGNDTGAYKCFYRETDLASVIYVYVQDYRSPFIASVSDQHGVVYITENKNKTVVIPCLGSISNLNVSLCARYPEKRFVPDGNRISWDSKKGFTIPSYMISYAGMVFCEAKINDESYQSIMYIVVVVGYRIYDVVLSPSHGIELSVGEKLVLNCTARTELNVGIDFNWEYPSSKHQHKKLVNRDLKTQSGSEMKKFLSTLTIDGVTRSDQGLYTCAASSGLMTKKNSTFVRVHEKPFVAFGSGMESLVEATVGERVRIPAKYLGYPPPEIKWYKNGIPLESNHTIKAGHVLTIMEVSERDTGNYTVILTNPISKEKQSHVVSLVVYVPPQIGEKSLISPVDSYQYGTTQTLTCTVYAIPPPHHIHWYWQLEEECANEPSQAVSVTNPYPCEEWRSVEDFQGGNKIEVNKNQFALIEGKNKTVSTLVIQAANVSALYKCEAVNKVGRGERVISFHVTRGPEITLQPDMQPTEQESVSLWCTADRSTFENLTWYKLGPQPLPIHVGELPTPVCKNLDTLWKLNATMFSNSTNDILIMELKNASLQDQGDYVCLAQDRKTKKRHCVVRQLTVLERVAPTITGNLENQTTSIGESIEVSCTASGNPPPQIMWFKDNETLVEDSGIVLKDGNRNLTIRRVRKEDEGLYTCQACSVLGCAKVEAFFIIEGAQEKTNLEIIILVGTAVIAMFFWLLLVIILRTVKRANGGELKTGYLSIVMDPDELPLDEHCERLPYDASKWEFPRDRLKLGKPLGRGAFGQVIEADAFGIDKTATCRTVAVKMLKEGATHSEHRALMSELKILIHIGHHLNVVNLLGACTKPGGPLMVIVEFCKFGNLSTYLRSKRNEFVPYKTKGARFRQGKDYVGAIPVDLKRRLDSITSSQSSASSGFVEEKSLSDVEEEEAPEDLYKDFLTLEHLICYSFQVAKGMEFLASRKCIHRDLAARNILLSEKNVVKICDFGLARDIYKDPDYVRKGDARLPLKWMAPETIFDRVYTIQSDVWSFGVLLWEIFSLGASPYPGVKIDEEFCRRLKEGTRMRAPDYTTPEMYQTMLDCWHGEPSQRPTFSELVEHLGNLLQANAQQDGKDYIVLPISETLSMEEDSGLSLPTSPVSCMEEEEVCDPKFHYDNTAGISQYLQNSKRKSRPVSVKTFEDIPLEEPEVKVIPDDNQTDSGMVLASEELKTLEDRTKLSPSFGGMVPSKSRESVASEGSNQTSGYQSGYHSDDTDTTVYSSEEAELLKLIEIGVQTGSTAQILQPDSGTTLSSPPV
compound,measurement,setting,value
"COc1nccnc1NS(=O)(=O)c1ccc(NC(=O)/C=C/c2ccc([N+](=O)[O-])s2)cc1 [NSA, necrosulfonamide, reference compound]",EC50,"HT-29 cells; Experimental-section numbering (compound 1 = Series 1 compound 4), necroptosis induced for 24 h, mean of at least three independent analyses, read-out: EC50 (nM), potency in TSZ-induced necroptosis assays in HT-29 cells",447 ± 32 nM
same,pMLKL immunofluorescence after TSZ stimulation,pMLKL,small pMLKL dots were dispersed in the cytoplasm
CCC(C)(C)C(=O)N(O)Cc1ccccc1 [RIPA-56],pMLKL immunofluorescence after TSZ stimulation,pMLKL,blocked the phosphorylation of MLKL completely
CN(c1ccc(NC(=O)Nc2ccc(OC(F)(F)F)cc2)cc1)c1ccnc(Nc2cccc(S(N)(=O)=O)c2)n1 [GW806742X],off-target activity against RIP3,RIP3,off-target activities
same,EC50,"HT-29 cells; Homo sapiens, HT-29, 24 h, read-out: EC50 (nM), potency in TSZ-induced necroptosis assays in HT-29 cells",589 ± 12 nM
same,pMLKL immunofluorescence after TSZ stimulation,pMLKL,blocked the phosphorylation of MLKL completely
same,off-target activity against RIP1,RIP1,off-target activities
same,"off-target activity against other kinases, including VEGFR2",VEGFR2,off-target activity
"Cn1c(=O)c2c(nc(S(=O)(=O)Cc3ccccc3Br)n2C)n(C)c1=O [Compound 32, 8-(2-bromobenzylsulfonyl)-1,3,7-trimethyl-1H-purine-2,6(3H,7H)-dione]",EC50,HT-29 cells; [1],1000 to 1e+06 nM
"CCCSc1nc2c(c(=O)n(C)c(=O)n2C)n1CC [Compound 78, 7-ethyl-1,3-dimethyl-8-(propylthio)-1H-purine-2,6(3H,7H)-dione]",EC50,HT-29 cells; [1],1000 to 1e+06 nM
"Cn1c(=O)c2c(nc(S(=O)(=O)Cc3cc(Cl)ccc3Cl)n2C)n(C)c1=O [Compound 55, 8-(2,5-dichlorobenzylsulfonyl)-1,3,7-trimethyl-1H-purine-2,6(3H,7H)-dione]",EC50,HT-29 cells; [2],1000 to 100000 nM
"Cn1c(=O)c2c(nc(S(=O)(=O)Cc3cc[n+]([O-])cc3)n2C)n(C)c1=O [Compound 53, 4-((1,3,7-trimethyl-2,6-dioxo-2,3,6,7-tetrahydro-1H-purin-8-ylsulfonyl)methyl)pyridine 1-oxide]",EC50,HT-29 cells; [1],1000 to 1e+06 nM
CCCCCNc1cccc(C#CCn2c(=O)n(C)c(=O)c3c2nc(S(C)(=O)=O)n3C)c1 [Compound 16],EC50,HT-29 cells; [3],100 to 10000 nM
"COc1cccc(CS(=O)(=O)c2nc3c(c(=O)n(C)c(=O)n3C)n2C)c1 [Compound 36, 8-(3-methoxybenzylsulfonyl)-1,3,7-trimethyl-1H-purine-2,6(3H,7H)-dione]",EC50,HT-29 cells; [1],1000 to 1e+06 nM
"Cn1c(=O)c2c(nc(S(=O)(=O)CC3CC3)n2C)n(CC#Cc2ccc(Br)cc2)c1=O [Compound 122, 3-(3-(4-bromophenyl)prop-2-yn-1-yl)-8-((cyclopropylmethyl)sulfonyl)-1,7-dimethyl-3,7-dihydro-1H-purine-2,6-dione]",EC50,"HT-29 cells; Series 1 (Table 1) compounds, HT-29 cells, TNF-α/Smac mimetic/z-VAD, 24 hrs, cell viability by ATP level, read-out: Series 1 compound necroptosis activity",1 to 1000 nM
COc1cc(C#CCn2c(=O)n(C)c(=O)c3c2nc(S(C)(=O)=O)n3C)cc(NCCN2CCOCC2)c1 [Compound 21],EC50,HT-29 cells; [3],1 to 100 nM
"CCn1c([S+]([O-])CC)nc2c1c(=O)n(C)c(=O)n2C (centres unmarked) [Compound 76, 7-ethyl-8-(ethylsulfinyl)-1,3-dimethyl-1H-purine-2,6(3H,7H)-dione]",EC50,HT-29 cells; [1],1000 to 1e+06 nM
Cn1c(=O)c2c(nc(S(C)(=O)=O)n2C)n(CC#Cc2cc(NC(=O)C3CC3)cc(NC(=O)C3CC3)c2)c1=O [Compound 27],EC50,HT-29 cells; [3],1 to 100 nM
CCNc1cc(C#CCn2c(=O)n(C)c(=O)c3c2nc(S(=O)(=O)CC2CC2)n3C)ccn1 [Compound 33],EC50,HT-29 cells; [3],1 to 100 nM
"COc1ccc(OC)c(Cn2c(=O)n(C)c(=O)c3c2nc(S(=O)(=O)Cc2cc(OC)ccc2OC)n3C)c1 [Compound 129, 3-(2,5-dimethoxybenzyl)-8-(2,5-dimethoxybenzylsulfonyl)-1,7-dimethyl-1H-purine-2,6(3H,7H)-dione]",EC50,HT-29 cells; [2],1000 to 100000 nM
CNCCS(=O)(=O)c1nc2c(c(=O)n(C)c(=O)n2CC#Cc2cccc(O)c2)n1C [Compound 151],EC50,"HT-29 cells; Series 1 (Table 1) compounds 147-176, activity extrapolated, read-out: Series 1 compound necroptosis activity (extrapolated)",1000 to 1e+06 nM
"Cn1c(=O)c2c(nc(S(=O)(=O)Cc3ccc[n+]([O-])c3)n2C)n(C)c1=O [Compound 51, 3-((1,3,7-trimethyl-2,6-dioxo-2,3,6,7-tetrahydro-1H-purin-8-ylsulfonyl)methyl)pyridine 1-oxide]",EC50,HT-29 cells; [1],1000 to 1e+06 nM
Cn1c(=O)c2c(nc(S(=O)(=O)CC3CC3)n2C)n(CC#Cc2cc(NC(=O)CN3CCOCC3)ccc2Cl)c1=O [Compound 22],EC50,HT-29 cells; [3],1 to 100 nM
